The test system of one test is hydrochloric acid ulcer. Nature of the test: Action against hydrochloric acid ulcer. The format is in vivo, Wistar-strain male rats. To be noted: po, 1 h; rat, 100 mg/kg peroral administration, 30 min before 0.6 N-HCl; ulcer area; read-out: Anti-ulcer action (hydrochloric acid ulcer model), Inhibition rate against non-administered animal. How it is done: (1) Action against hydrochloric acid ulcer Wistar-strain male rats (weight 180 g, 6 to 7 rats per group) were starved for 18 hours and left without water for 4 hours before the test. The test drug was formed into an aqueous solution or suspended in an aqueous solution of 0.5% carboxymethyl cellulose and administered orally at a volume of 0.5 ml/100 g, and 30 minutes after administration, 1 ml of 0.6 N-HCl was orally administered. One hour after the administration, the stomach was excised and injected with 5 ml of 5% formalin solution. After the formalin fixation for 10 min., the stomach was cut open along the greater curvature, and the area (mm^2) of an ulcer generated at the corpus of stomach was measured. The total sum of the area of ulcer generated per rat was compared with that of the control group. The control group was administered with water or a 0.5% aqueous carboxymethyl cellulose solution. The Ulcer Index was determined as the inhibition ratio (%).

Test [1] relates to restrictive water immersion stress ulcer. Briefly: Action against restrictive water immersion stress ulcer. The test is classed as in vivo, Wistar-strain male rats. Particulars: po; rat, 100 mg/kg peroral administration, 7 hours water immersion stress at 23° C.; ulcer length; read-out: Anti-ulcer action (stress ulcer), Inhibition rate against non-administered animal. As for the experimental part: (2) Action against restrictive water immersion stress ulcer Wistar-strain male rats (weight 180 g, 6 to 8 rats per group) were starved for 18 hours before the test. The test drug was administered orally by the same method as used in (1). Thirty minutes after the administration, the rats were placed in a restrictive stress cage, and immersed to the xiphoideus process of the rat in water of 23° C. After the loading stress for 7 hours, the stomach was excised and, fixed in formalin by the same method as used in (1), and the length (mm) of the ulcer was measured. The total length of an ulcer generated per rat was compared with that of the control group. An Ulcer Index was determined as the inhibition ratio (%).

Structures can show the parent of a compound that is named as a salt. Where a SMILES comes first, the peptide text is derived from it. [ ]: non-standard residue; d: D form. Trx = NC[C@H]1CC[C@H](C(=O)O)CC1; Sar = CNCC(=O)O

`NC[C@H]1CC[C@H](C(=O)N[C@@H](Cc2ccccc2)C(N)=O)CC1` [Compound 1, N-[trans-4-aminomethylcyclohexyl-carbonyl]-L-phenylalanine amide hydrochloride]: the results for the inhibition in vivo at 100 mg/kg (in the test with hydrochloric acid ulcer; in test [1]) were 77.1% and 88.2%, respectively. In the case of `CCOC(=O)CNC(=O)[C@H](Cc1ccccc1)NC(=O)[C@H]1CC[C@H](CN)CC1` [Compound 5] (H-[Trx]-Phe-Gly-OEt), the inhibition in vivo at 100 mg/kg in the test with hydrochloric acid ulcer worked out at 53.3%; in test [1], 76%. The matching figures for `CC(=O)c1ccc(NC(=O)C(Cc2cccc(Oc3ccccc3)c2)NC(=O)[C@H]2CC[C@H](CN)CC2)cc1` (mixture of isomers) [Compound 32, N-(trans-4-aminomethylcyclohexylcarbonyl)-3-phenoxy-DL-phenylalanine 4-acetylanilide hydrochloride]: 86.4% and 67.4%. The matching figures for `CN(C)C(=O)[C@H](Cc1ccccc1)NC(=O)c1ccc(C(=N)N)cc1` [Compound 22, N-(4-amidinobenzoyl)-L-phenylalanine dimethylamide hydroiodide]: 86% and 76.2%.

As for `CCOC(=O)C1CCN(C(=O)[C@H](Cc2ccccc2)NC(=O)[C@H]2CC[C@H](CN)CC2)CC1` [Compound 11], the inhibition in vivo at 100 mg/kg in the test with hydrochloric acid ulcer turned out to be 68.4%; in test [1] it was 85.2%. `CCOC(=O)C1CCCC(NC(=O)[C@H](Cc2ccccc2)NC(=O)[C@H]2CC[C@H](CN)CC2)C1` (some centres unmarked) [Compound 6]: the inhibition in vivo at 100 mg/kg with hydrochloric acid ulcer is 77.4%. Consider `CC(=O)c1ccc(NC(=O)[C@H](Cc2ccccc2)NC(=O)c2ccc(C(=N)N)cc2)cc1` [Compound 29], for which the results for the inhibition in vivo at 100 mg/kg (in the test on hydrochloric acid ulcer; in test [1]) were 81% and 83.7%, respectively. For the compound `CN(C)C(=O)[C@H](Cc1ccccc1)NC(=O)[C@H]1CC[C@H](CNC(=N)N)CC1` [Compound 19, N-(trans-4-guanidinomethylcyclohexylcarbonyl)-L-phenylalanine dimethylamide methanesulfonate], in the test on hydrochloric acid ulcer, the inhibition in vivo at 100 mg/kg stood at 52.5%. Same read-out and setting: then `CCOC(=O)c1ccc(NC(=O)[C@H](Cc2ccccc2)NC(=O)[C@H]2CC[C@H](CN)CC2)cc1` [Compound 21], with 89.8%. Same read-out and setting: in the case of `CNC(=O)c1ccc(NC(=O)[C@H](Cc2ccccc2)NC(=O)[C@H]2CC[C@H](CN)CC2)cc1` [Compound 23, N-(trans-4-aminomethylcyclohexylcarbonyl)-L-phenylalanine 4-methylcarbamoylanilide hydrochloride] it was 79.9%.

As for `CC(=O)c1ccc(NC(=O)[C@H](Cc2ccccc2)NC(=O)[C@H]2CC[C@H](CN)CC2)cc1` [Compound 8], the inhibition in vivo at 100 mg/kg stood at 73.2% in the test on hydrochloric acid ulcer and 65% in test [1]. The matching figures for `CCOC(=O)[C@H](CO)NC(=O)[C@H](Cc1ccccc1)NC(=O)[C@H]1CC[C@H](CN)CC1` [Compound 20, Ethyl N-N-(trans-4-aminomethylcyclohexylcarbonyl)-L-phenylalanyl-L-serinate hydrochloride] (H-[Trx]-Phe-Ser-OEt): 54.3% and 70%.

As to `NC[C@H]1CC[C@H](C(=O)N[C@@H](Cc2ccc(OCc3ccccc3)cc2)C(=O)Nc2cccnc2)CC1` [Compound 31], the inhibition in vivo at 100 mg/kg came to 92.3% in the test on hydrochloric acid ulcer and 60% in test [1]. With `NC[C@H]1CC[C@H](C(=O)N[C@@H](Cc2ccccc2)C(=O)Nc2ccc(C(=O)O)cc2)CC1` [Compound 14, N-(trans-4-aminomethylcyclohexylcarbonyl)-L-phenylalanine 4-hydroxycarbonylanilide hydrochloride], the inhibition in vivo at 100 mg/kg with hydrochloric acid ulcer came to 74.8%. Still for that read-out and setting: then `NCc1ccc(C(=O)N[C@@H](Cc2ccccc2)C(N)=O)cc1` [Compound 2, N-(4-aminomethylbenzoyl)-L-phenyl-alanineamide hydrochloride], with 58.2%. For `CCOC(=O)c1ccc(CNC(=O)[C@H](Cc2ccccc2)NC(=O)[C@H]2CC[C@H](CN)CC2)cc1` [Compound 10], the inhibition in vivo at 100 mg/kg was 60.4% in the test with hydrochloric acid ulcer and 86.1% in test [1].

Consider `NC[C@H]1CC[C@H](C(=O)N[C@@H](Cc2ccccc2)C(=O)Nc2ccc(C(N)=O)cc2)CC1` [Compound 13, N-(trans-4-aminomethylcyclohexyl-carbonyl)-L-phenylalanine 4-carbamoylanilide hydrochloride], for which the inhibition in vivo at 100 mg/kg was found to be 85.7% in the test on hydrochloric acid ulcer and 64.8% in test [1]. Take `CCOC(=O)CCNC(=O)[C@H](Cc1ccccc1)NC(=O)[C@H]1CC[C@H](CN)CC1` [Compound 30]: the inhibition in vivo at 100 mg/kg in the test with hydrochloric acid ulcer came out at 67.5%. Same read-out and setting: then `NC[C@H]1CC[C@H](C(=O)N[C@@H](Cc2ccccc2)C(=O)Nc2cccc(C(N)=O)c2)CC1` [Compound 26], with 80.8%.

Consider `CC(C)(C)NC(=O)[C@H](Cc1ccccc1)NC(=O)[C@H]1CC[C@H](CN)CC1` [Compound 15], for which the inhibition in vivo at 100 mg/kg in the test on hydrochloric acid ulcer is 73.1%; in test [1] it was 76.4%.

In the case of `NCc1ccc(C(=O)N[C@@H](Cc2ccccc2)C(=O)Nc2ccc(C(N)=O)cc2)cc1` [Compound 27, N-(4-aminomethylbenzoyl)-L-phenylalanine 4-carbamoylanilide hydrochloride], the inhibition in vivo at 100 mg/kg in the test on hydrochloric acid ulcer is 78.1%. Take `CCOC(=O)c1ccccc1NC(=O)[C@H](Cc1ccccc1)NC(=O)[C@H]1CC[C@H](CN)CC1` [Compound 3]: the figures for the inhibition in vivo at 100 mg/kg (in the test with hydrochloric acid ulcer; in test [1]) were 91.4% and 52.2%, respectively. In the case of `CN(C)C(=O)[C@H](Cc1ccccc1)NC(=O)c1ccc(CN)cc1` [Compound 17], the inhibition in vivo at 100 mg/kg with hydrochloric acid ulcer was found to be 57.5%. On to `CN(C)C(=O)[C@H](Cc1ccccc1)NC(=O)[C@H]1CC[C@H](CN)CC1` [Compound 9, N-(trans-4-aminomethylcyclohexyl-carbonyl)-L-phenylalanine dimethylamide hydrochloride], for which the values for the inhibition in vivo at 100 mg/kg (with hydrochloric acid ulcer; in test [1]) were 73.6% and 77.6%, respectively. For `CNC(=O)[C@H](Cc1ccccc1)NC(=O)[C@H]1CC[C@H](CN)CC1` [Compound 7, N-(trans-4-aminomethylcyclohexyl-carbonyl)-L-phenylalanine methylamide hydrochloride], in the test on hydrochloric acid ulcer, the inhibition in vivo at 100 mg/kg turned out to be 52.6%. `CN(C)C(=O)c1ccc(NC(=O)[C@H](Cc2ccccc2)NC(=O)[C@H]2CC[C@H](CN)CC2)cc1` [Compound 24]: the inhibition in vivo at 100 mg/kg in the test with hydrochloric acid ulcer turned out to be 82.6%; in test [1] it was 70.6%. The matching figures for `N=C(N)c1ccc(C(=O)N[C@@H](Cc2ccccc2)C(=O)Nc2ccc(C(N)=O)cc2)cc1` [Compound 28, N-(4-amidinobenzoyl)-L-phenylalanine 4-carbamoylanilide methanesulfonate]: 69.8% and 57.4%. The matching figures for `CC1CCC(NC(=O)[C@H](Cc2ccccc2)NC(=O)c2ccc(NC(=N)N)cc2)CC1` (mixture of isomers) [Compound 12, N-(4-guanidinobenzoyl)-L-phenylalanine 4-cis/trans-methylcyclohexylamide hydrochloride]: 89.4% and 65.8%. The matching figures for `CCOC(=O)C1CCC(NC(=O)[C@H](Cc2ccccc2)NC(=O)[C@H]2CC[C@H](CN)CC2)CC1` (some centres unmarked) [Compound 4]: 71.4% and 74.6%. Consider `CCOC(=O)CN(C)C(=O)[C@H](Cc1ccccc1)NC(=O)[C@H]1CC[C@H](CN)CC1` [Compound 25] (H-[Trx]-Phe-[Sar]-OEt), for which, in the test with hydrochloric acid ulcer, the inhibition in vivo at 100 mg/kg came out at 57.3%.

With `CC(=O)c1ccc(NC(=O)[C@H](Cc2ccccc2)NC(=O)c2ccc(CN)cc2)cc1` [Compound 16, N-(4-aminomethylbenzoyl)-L-phenylalanine 4-acetylanilide hydrochloride], the inhibition in vivo at 100 mg/kg in the test on hydrochloric acid ulcer came to 96.6%. The same measure, in the same setting: then `CCOC(=O)c1cccc(NC(=O)[C@H](Cc2ccccc2)NC(=O)[C@H]2CC[C@H](CN)CC2)c1` [Compound 18], with 89.2%.
